# Source: PMC6513986, “Molecular basis for heat desensitization of TRPV1 ion channels” (Nature Communications, 2019)
# Where two headings read alike, the source gives them in different places.
# Assays:
# [1] = target: Fruit bat TRPV1 (Carollia brevicauda, UniProt G1DJ79); experiment: Agonist activation, patch clamp, HEK293T; type: cell-based; conditions: read-out: EC50_Capsaicin
# [2] = target: Polar bear TRPV1 (Ursus maritimus, UniProt A0A384CG69); experiment: Agonist activation, patch clamp, HEK293T; type: cell-based; conditions: read-out: EC50_Capsaicin
# [3] = target: pV1_mC chimera (Ornithorhynchus anatinus, UniProt F7A7B4); experiment: Agonist activation, patch clamp, HEK293T; type: cell-based, platypus / mouse; conditions: read-out: EC50_Capsaicin
# pV1_mC chimera, sequence (F7A7B4 1-691, stated change not applied): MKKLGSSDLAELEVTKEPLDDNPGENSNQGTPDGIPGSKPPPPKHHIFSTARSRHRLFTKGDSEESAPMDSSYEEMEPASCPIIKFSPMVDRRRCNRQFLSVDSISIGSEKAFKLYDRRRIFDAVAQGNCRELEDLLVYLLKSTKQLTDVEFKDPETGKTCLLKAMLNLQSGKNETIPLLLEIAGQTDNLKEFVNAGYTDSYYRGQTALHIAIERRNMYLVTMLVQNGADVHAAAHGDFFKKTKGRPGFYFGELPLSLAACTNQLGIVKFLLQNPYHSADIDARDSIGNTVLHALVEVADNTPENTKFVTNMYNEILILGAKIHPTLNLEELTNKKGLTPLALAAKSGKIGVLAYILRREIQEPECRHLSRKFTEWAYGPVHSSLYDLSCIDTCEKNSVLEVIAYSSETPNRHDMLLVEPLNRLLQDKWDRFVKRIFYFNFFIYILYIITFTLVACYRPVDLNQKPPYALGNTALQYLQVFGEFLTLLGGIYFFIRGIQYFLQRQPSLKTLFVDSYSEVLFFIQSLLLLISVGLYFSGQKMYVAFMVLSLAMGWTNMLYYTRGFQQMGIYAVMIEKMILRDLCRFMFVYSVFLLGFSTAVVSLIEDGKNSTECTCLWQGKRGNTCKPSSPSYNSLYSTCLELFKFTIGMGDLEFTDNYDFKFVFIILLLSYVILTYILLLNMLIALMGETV
# pV1_mC chimera, sequence (Q704Y3 688-839 partner): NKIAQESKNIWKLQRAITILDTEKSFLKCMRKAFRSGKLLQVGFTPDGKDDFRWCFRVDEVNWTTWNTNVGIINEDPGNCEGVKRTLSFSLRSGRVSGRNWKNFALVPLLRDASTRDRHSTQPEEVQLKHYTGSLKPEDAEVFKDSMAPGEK
# [4] = target: mV1 CΔ28 (Ala800-Ala827) (Mus musculus, UniProt Q704Y3, DEL800-827); experiment: Agonist activation, patch clamp, HEK293T; type: cell-based; conditions: read-out: EC50_Capsaicin
# mV1 CΔ28 (Ala800-Ala827), sequence (Q704Y3 with tags, fused parts or gaps DEL800-827): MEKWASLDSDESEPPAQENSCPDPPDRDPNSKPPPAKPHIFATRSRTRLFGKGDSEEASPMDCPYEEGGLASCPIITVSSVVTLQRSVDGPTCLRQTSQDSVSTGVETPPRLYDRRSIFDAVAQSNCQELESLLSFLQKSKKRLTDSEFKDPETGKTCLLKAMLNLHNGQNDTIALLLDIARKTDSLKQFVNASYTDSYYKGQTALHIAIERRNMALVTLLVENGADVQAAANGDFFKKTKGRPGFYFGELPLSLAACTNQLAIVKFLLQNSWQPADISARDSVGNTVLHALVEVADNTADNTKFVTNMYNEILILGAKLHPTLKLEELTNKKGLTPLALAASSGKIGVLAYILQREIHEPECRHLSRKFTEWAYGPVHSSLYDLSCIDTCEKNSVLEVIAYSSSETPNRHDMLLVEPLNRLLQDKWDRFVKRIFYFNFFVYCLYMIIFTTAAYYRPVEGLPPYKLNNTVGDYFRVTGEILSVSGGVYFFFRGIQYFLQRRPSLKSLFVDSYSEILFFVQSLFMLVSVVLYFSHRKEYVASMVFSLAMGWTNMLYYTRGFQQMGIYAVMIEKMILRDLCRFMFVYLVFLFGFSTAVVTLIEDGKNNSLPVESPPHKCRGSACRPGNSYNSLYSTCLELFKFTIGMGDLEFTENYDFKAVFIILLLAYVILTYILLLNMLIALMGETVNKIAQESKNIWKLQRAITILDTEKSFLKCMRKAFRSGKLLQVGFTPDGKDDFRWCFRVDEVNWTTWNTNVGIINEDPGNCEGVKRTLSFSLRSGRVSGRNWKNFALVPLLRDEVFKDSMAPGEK
# [5] = target: mV1 CΔ10 (Phe830-Lys839) (Mus musculus, UniProt Q704Y3); experiment: Agonist activation, patch clamp, HEK293T; type: cell-based; conditions: read-out: EC50_Capsaicin
# [6] = target: mV1 S116A (Mus musculus, UniProt Q704Y3, S117A); experiment: Agonist activation, patch clamp, HEK293T; type: cell-based; conditions: read-out: EC50_Capsaicin
# mV1 S116A, sequence (Q704Y3 whole entry S117A): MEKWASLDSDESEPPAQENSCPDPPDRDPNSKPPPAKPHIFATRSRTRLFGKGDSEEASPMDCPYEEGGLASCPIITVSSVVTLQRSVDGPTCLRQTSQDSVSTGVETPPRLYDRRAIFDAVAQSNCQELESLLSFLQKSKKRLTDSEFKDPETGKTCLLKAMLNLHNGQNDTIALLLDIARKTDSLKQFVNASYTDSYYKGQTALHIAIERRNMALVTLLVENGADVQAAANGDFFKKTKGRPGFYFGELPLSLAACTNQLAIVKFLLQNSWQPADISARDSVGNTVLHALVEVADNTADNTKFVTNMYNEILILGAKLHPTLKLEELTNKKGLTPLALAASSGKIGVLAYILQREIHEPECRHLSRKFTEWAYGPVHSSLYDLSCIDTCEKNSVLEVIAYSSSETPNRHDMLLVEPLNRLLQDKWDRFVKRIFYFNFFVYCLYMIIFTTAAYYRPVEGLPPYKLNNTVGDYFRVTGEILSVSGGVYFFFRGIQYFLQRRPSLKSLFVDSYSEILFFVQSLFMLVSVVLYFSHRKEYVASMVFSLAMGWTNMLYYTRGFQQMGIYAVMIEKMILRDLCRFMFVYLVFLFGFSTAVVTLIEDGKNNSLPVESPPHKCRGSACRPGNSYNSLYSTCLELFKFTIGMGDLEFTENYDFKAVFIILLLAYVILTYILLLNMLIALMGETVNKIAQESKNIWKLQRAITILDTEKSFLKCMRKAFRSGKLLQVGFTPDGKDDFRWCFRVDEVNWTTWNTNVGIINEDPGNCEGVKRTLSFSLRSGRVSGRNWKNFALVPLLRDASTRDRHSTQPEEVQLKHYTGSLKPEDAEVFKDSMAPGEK
# [7] = target: mV1 F830A (Mus musculus, UniProt Q704Y3, F830A); experiment: Agonist activation, patch clamp, HEK293T; type: cell-based; conditions: read-out: EC50_Capsaicin
# mV1 F830A, sequence (Q704Y3 whole entry F830A): as the sequence (Q704Y3 whole entry S117A) above, with A117S, F830A counted along it
# [8] = target: mV1 D832A (Mus musculus, UniProt Q704Y3, D832A); experiment: Agonist activation, patch clamp, HEK293T; type: cell-based; conditions: read-out: EC50_Capsaicin
# mV1 D832A, sequence (Q704Y3 whole entry D832A): as the sequence (Q704Y3 whole entry S117A) above, with A117S, D832A counted along it
# [9] = target: mV1 S833A (Mus musculus, UniProt Q704Y3, S833A); experiment: Agonist activation, patch clamp, HEK293T; type: cell-based; conditions: read-out: EC50_Capsaicin
# mV1 S833A, sequence (Q704Y3 whole entry S833A): as the sequence (Q704Y3 whole entry S117A) above, with A117S, S833A counted along it
# [10] = target: mV1 P836A (Mus musculus, UniProt Q704Y3, P836A); experiment: Agonist activation, patch clamp, HEK293T; type: cell-based; conditions: read-out: EC50_Capsaicin
# mV1 P836A, sequence (Q704Y3 whole entry P836A): as the sequence (Q704Y3 whole entry S117A) above, with A117S, P836A counted along it
# [11] = target: pV1_241 (ANAP) (Ornithorhynchus anatinus, UniProt F7A7B4); experiment: Agonist activation of ANAP-incorporated channel, patch clamp; type: cell-based, platypus
# pV1_241 (ANAP), sequence (F7A7B4 1-842): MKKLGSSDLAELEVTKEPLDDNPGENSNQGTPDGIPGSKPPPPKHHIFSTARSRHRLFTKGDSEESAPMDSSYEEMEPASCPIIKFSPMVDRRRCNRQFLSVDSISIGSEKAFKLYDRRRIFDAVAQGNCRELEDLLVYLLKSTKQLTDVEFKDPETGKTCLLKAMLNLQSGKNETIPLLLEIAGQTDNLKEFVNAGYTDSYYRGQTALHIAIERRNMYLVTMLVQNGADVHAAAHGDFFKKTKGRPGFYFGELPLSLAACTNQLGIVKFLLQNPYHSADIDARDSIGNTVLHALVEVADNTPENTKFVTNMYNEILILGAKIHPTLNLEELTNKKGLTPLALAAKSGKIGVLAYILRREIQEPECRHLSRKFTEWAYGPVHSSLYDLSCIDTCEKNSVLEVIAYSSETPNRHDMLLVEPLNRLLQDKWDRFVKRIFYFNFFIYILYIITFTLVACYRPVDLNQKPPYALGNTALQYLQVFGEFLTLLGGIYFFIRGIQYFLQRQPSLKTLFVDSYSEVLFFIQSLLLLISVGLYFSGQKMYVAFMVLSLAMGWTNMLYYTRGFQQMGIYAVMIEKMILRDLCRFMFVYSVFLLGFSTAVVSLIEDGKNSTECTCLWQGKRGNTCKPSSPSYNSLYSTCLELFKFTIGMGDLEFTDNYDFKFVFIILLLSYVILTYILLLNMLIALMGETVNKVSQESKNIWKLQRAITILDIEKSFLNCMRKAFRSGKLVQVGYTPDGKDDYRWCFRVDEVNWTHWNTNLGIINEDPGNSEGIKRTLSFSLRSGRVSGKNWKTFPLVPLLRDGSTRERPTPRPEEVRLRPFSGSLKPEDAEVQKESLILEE
# [12] = target: mV1_579 (ANAP) (Mus musculus, UniProt Q704Y3, C579X); experiment: as above; type: cell-based
# [13] = target: mV1_630 (ANAP) (Mus musculus, UniProt Q704Y3, S630X); experiment: as above; type: cell-based
# [14] = target: mV1_648 (ANAP) (Mus musculus, UniProt Q704Y3, L648X); experiment: as above; type: cell-based
# [15] = target: mV1_654 (ANAP) (Mus musculus, UniProt Q704Y3, Y654X); experiment: as above; type: cell-based
# [16] = tested on: rTRPV1; set-up: method as in Sanchez-Moreno et al; conditions: 4 μM capsaicin, ref Sanchez-Moreno et al; cited from earlier work
# Fruit bat TRPV1, sequence (G1DJ79 1-838): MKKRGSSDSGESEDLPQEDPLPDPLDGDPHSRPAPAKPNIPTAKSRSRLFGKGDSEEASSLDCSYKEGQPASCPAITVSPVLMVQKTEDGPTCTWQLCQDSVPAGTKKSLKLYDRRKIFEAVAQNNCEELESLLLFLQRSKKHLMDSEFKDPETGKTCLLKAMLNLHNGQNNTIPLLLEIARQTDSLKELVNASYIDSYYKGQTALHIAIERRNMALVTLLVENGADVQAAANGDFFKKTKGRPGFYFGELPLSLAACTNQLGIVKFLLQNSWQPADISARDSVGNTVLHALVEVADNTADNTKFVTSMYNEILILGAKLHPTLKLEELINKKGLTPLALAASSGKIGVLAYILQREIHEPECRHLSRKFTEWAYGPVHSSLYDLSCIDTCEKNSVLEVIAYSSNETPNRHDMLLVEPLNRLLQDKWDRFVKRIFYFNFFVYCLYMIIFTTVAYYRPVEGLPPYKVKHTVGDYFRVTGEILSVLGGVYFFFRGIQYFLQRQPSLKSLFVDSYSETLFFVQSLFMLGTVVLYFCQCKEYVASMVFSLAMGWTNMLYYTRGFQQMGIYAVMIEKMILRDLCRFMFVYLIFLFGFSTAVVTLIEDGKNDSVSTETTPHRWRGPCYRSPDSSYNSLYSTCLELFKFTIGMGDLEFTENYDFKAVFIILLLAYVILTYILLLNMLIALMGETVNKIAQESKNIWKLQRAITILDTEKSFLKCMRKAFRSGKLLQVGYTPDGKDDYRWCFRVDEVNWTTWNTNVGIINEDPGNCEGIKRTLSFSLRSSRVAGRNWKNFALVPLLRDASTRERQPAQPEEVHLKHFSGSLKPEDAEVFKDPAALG
compound,measurement,setting,value
"COc1cc(CNC(=O)CCCC/C=C/C(C)C)ccc1O [Capsaicin, capsaicin]",EC50,"[1]; mean ± s.e.m., n = 6",354 ± 25 nM
same,EC50,[1]; replicate 1,273 nM
same,EC50,[1]; replicate 2,389 nM
same,EC50,[1]; replicate 3,419 nM
same,EC50,[1]; replicate 4,415 nM
same,EC50,[1]; replicate 5,274 nM
same,EC50,[1]; replicate 6,354 nM
same,EC50,"[2]; mean ± s.e.m., n = 3",313 nM
same,EC50,[2]; replicate 1,262 nM
same,EC50,[2]; replicate 2,336 nM
same,EC50,[2]; replicate 3,341 nM
same,EC50,"[3]; mean ± s.e.m., n = 6",310 nM
same,EC50,[3]; replicate 3,388 nM
same,EC50,[3]; replicate 4,257 nM
same,EC50,[3]; replicate 5,354 nM
same,EC50,[3]; replicate 6,300 nM
same,EC50,"[4]; mean ± s.e.m., n = 3",343 nM
same,EC50,[4]; replicate 1,256 nM
same,EC50,[4]; replicate 2,365 nM
same,EC50,[4]; replicate 3,408 nM
same,EC50,"[5]; mean ± s.e.m., n = 6",354 nM
same,EC50,[5]; replicate 1,215 nM
same,EC50,[5]; replicate 3,313 nM
same,EC50,[5]; replicate 4,407 nM
same,EC50,[5]; replicate 5,457 nM
same,EC50,[5]; replicate 6,463 nM
same,EC50,"[6]; mean ± s.e.m., n = 3",186 nM
same,EC50,[6]; replicate 1,191 nM
same,EC50,[6]; replicate 2,161 nM
same,EC50,[6]; replicate 3,206 nM
same,EC50,"[7]; mean ± s.e.m., n = 3",338 nM
same,EC50,[7]; replicate 1,286 nM
same,EC50,[7]; replicate 2,398 nM
same,EC50,[7]; replicate 3,330 nM
same,EC50,"[8]; mean ± s.e.m., n = 3",361 nM
same,EC50,[8]; replicate 1,372 nM
same,EC50,[8]; replicate 2,282 nM
same,EC50,[8]; replicate 3,429 nM
same,EC50,"[9]; mean ± s.e.m., n = 3",344 nM
same,EC50,[9]; replicate 1,361 nM
same,EC50,[9]; replicate 2,282 nM
same,EC50,[9]; replicate 3,389 nM
same,EC50,"[10]; mean ± s.e.m., n = 3",315 nM
same,EC50,[10]; replicate 1,262 nM
same,EC50,[10]; replicate 2,364 nM
same,EC50_Capsaicin,[11]; replicate 3,288 nM
same,EC50_Capsaicin,[11]; replicate 5,322 nM
same,EC50_Capsaicin,[11]; replicate 6,342 nM
same,EC50,[12],293 nM
same,EC50_Capsaicin,[12]; replicate 2,297 nM
same,EC50,[13],299 nM
same,EC50_Capsaicin,[13]; replicate 1,325 nM
same,EC50_Capsaicin,[13]; replicate 2,289 nM
same,EC50_Capsaicin,[13]; replicate 3,310 nM
same,EC50_Capsaicin,[13]; replicate 4,272 nM
same,EC50,[14],296 nM
same,EC50_Capsaicin,[14]; replicate 1,301 nM
same,EC50_Capsaicin,[14]; replicate 2,286 nM
same,EC50_Capsaicin,[14]; replicate 3,312 nM
same,EC50_Capsaicin,[14]; replicate 5,289 nM
same,EC50,[15],304 nM
same,EC50_Capsaicin,[15]; replicate 1,324 nM
same,EC50_Capsaicin,[15]; replicate 2,298 nM
same,EC50_Capsaicin,[15]; replicate 3,284 nM
same,EC50_Capsaicin,[15]; replicate 4,310 nM
same,EC50_Capsaicin,[15]; replicate 5,267 nM
same,EC50_Capsaicin,[15]; replicate 6,341 nM
same,capsaicin sensitivity of heat-desensitized rTRPV1,[16],insensitive
